Measured values: a melting point compilation (Tetko et al.)

melting point	SMILES
96 °C	O=c1ccc([N+](=O)[O-])cn1Cc1ccccc1
67 to 68 °C	O=Cc1ccc(-c2cccs2)cc1
150 °C	N#C/C(=C\c1ccc(Cl)cc1)c1nc2ccccc2s1
76 to 78 °C	Cc1ccc(C(Br)C(=O)c2ccc(Cl)cc2)cc1 (configuration not stated)
127 to 129 °C	COC(=O)c1cc2ccsc2[nH]1
195 to 198 °C	O=C(O)CN1C(=O)c2ccccc2C1=O
203 °C	c1ccc2c(c1)-c1nc3ccccc3nc1-2
38 °C	FC(F)(F)c1cccnc1Br
85 to 87 °C	O=C(CBr)c1cc(-c2ccc(Cl)cc2Cl)no1
238 °C	Oc1ncnc2cccc(F)c12
159 °C	Nc1ccc2nccnc2c1
36.5 °C	Cc1ccc(O)c(C(C)C)c1
139 to 141 °C	Cc1n[nH]c(C)c1Oc1ccc(Cl)cc1
30 °C	Clc1ccc(I)cc1Cl
104 to 105 °C	O=[N+]([O-])c1cccnc1Oc1cncc(Cl)c1
69 °C	CN(C)c1ccc(CO)cc1
135 to 138 °C	COc1ccc(C=Cc2ccccc2)cc1
116 °C	COC(=O)C1(S(=O)(=O)c2ccc(Cl)cc2)CC1
158 to 160 °C	COC(=O)c1cc2c(s1)-c1cc(Cl)ccc1SC2
149 to 150 °C	CCOC(=O)c1nnn2c3ccccc3c(=O)n(C)c12
112 °C	CC(=O)c1ccc(C(C)=O)cc1
58 to 60 °C	N#Cc1cccc(-c2cccs2)c1
160 °C	Cc1ccc(Nc2ccc([N+](=O)[O-])cc2N)cc1

melting point	SMILES
160 °C	O=C(O)c1cc(Br)ccc1Cl
47 °C	OC(c1ccc(F)cc1)c1ccc(F)cc1
85 to 86 °C	Brc1cc(Br)c(Oc2ccccc2)c(Br)c1
99 to 104 °C	COc1cc([N+](=O)[O-])ccc1O
68.5 to 70.5 °C	O=C=Nc1ccc(OC2CCOCC2)nc1
15 °C	CCc1ccc(O)c(OC)c1
202 °C	COc1ccc(-c2ccnc(S)n2)cc1
167 to 168 °C	CS(=O)(=O)c1noc(-c2cccs2)c1C#N
49 to 51 °C	O=C(Cl)c1ccc2c(c1)CCO2
39 to 41 °C	COc1ccc2c(c1)CC2O (configuration not stated)
133 to 135 °C	CCCC(C(N)=O)c1ccc(O)c(O)c1 (configuration not stated)
26 °C	CC(C)c1cccc(O)c1
130 to 133 °C	OC(C#CC#CC(O)(c1ccccc1)c1ccccc1Cl)(c1ccccc1)c1ccccc1Cl (single isomer, unassigned; (+))
104 to 107 °C	CNc1cc(Cl)ccc1[N+](=O)[O-]
130 to 131 °C	Brc1ccc2[nH]cnc2c1
49 to 52 °C	N#CC1(c2ccc(F)cc2Cl)CCCC1
38.5 °C	Cc1cc(Br)cc(Cl)c1N
223 to 226 °C	S=c1[nH]ccn1-c1ccc(Cl)cc1
45 °C	O=S(=O)(Nc1ccc(F)cc1C(F)(F)F)C(F)(F)F
210 °C	O=C(O)c1ccc(Cl)cc1O
107 to 109 °C	N#Cc1cccnc1Cl
78 °C	Cc1ccc(C)c(CCC(C)(C)C(=O)O)c1

More lines, now with the values behind:

SMILES	melting point
COC1C(C2COC3(CCCCC3)O2)OC2OC3(CCCCC3)OC21 (configuration not stated)	35 to 38 °C
COC(=O)C1=C(C(=O)OC)Cc2cc3c(cc2C1)CC3	133 °C
CCC(/C(=N/Nc1ccc([N+](=O)[O-])cc1[N+](=O)[O-])c1ccc(OC)cc1)C1CCCCC1 (configuration not stated)	200 to 201 °C
O=C(O)c1ccc(Cc2ccc(C(=O)O)cc2)cc1	346 to 350 °C
Cn1c(=O)c(C2=NNC(=O)C2=NNc2ccccc2Br)c(O)c2ccccc21	270 °C
COc1cc(C=O)cc(Br)c1O	164 to 166 °C
Cc1nc(C(C)(C)C)sc1C(=O)O	156 °C
O=C1OC(c2ccc(OP(=O)(O)O)cc2)(c2ccc(OP(=O)(O)O)cc2)c2ccccc21	198 °C
O=CN(C=O)N(C=O)C=O	180 to 183 °C
COC(=O)CCC(C)C1CCC2C3C(=O)CC4CCCCC4(C)C3CC(=O)C12C (configuration not stated)	140 °C
N#CC1CCCC1	-76 °C
Cn1c(=O)c(C2=NNC(=O)C2=CNc2ccc(Cl)cc2)c(O)c2ccccc21	290 °C
c1ccc(N(c2ccccc2)c2ccccc2)cc1	127 °C
O=CC=CC=Cc1ccccc1	42.5 °C
CCC(O)C(CC(C)N(C)C)(c1ccccc1)c1ccccc1 (configuration not stated)	127 °C
CN(C)c1ccc(/C=C(/C#N)C(N)=S)cc1	189 °C
CC(O)C(c1ccccc1)c1ccccc1 (configuration not stated)	59 to 63 °C
ClCc1nnc(C2CC2)s1	80 to 84 °C
Cc1ccc(N=Nc2ccc(N(C)C)cc2)cc1	165 to 167 °C
Cc1c(N)cc([N+](=O)[O-])cc1C(N)=O	199 °C
COC(=O)c1cscc1N	35 to 38 °C

SMILES	melting point
CCCCCCCCCc1ccccc1	-24 °C
Cc1ccccc1C(=O)Nc1cccc(OC(C)C)c1	92.5 °C
Nc1ccc2c3c(cccc13)-c1ccccc1-2	116 °C
CCCCCCCCCCCCCCCCC=O	36 °C
O=C1OC(=O)[C@H]2[C@@H]1[C@@H]1C3C=CC([C@H]21)[C@H]1C(=O)OC(=O)[C@@H]31	355 to 357 °C
Cc1ccc(S(=O)(=O)OCCCOS(=O)(=O)c2ccc(C)cc2)cc1	90 to 93 °C
ClCc1nc(-c2cccs2)no1	59 to 60 °C
O=C(c1ccccc1)c1noc(-c2ccc3ccccc3c2)c1S(=O)(=O)c1ccccc1	178 °C
CC(C)C(C)(C)C	-25 °C
Cc1cc(C(=O)NCCc2ccc(S(=O)(=O)NC(=O)NN3CCCCCC3)cc2)no1	189 °C
C1C2CC3CC1CC(SSC14CC5CC(CC(C5)C1)C4)(C2)C3	225 to 228 °C
NC(CSCc1ccccc1)C(=O)Nc1ccc([N+](=O)[O-])cc1 (configuration not stated)	100 to 102 °C
CC(C)CCCCCCCCCCCO	10.5 °C
O=C(O)c1cc([N+](=O)[O-])cc(C(F)(F)F)c1	130 °C
O=C1OC(=O)C2CCC12 (configuration not stated)	73 to 76 °C
CC(=O)OC1CC2C(C)C(=O)C3(C(O)CC4C(C)(C)CCCC4(CO)C13)C2O (configuration not stated)	120 °C
CCCCCC=CCC=CCCCCCCCC(=O)O	-5 °C
O=[N+]([O-])c1cccc(Cl)c1O	70 °C
CCCC1Nn2c(nnc2-c2ccc(OCC)cc2)S1 (configuration not stated)	90 °C
Cc1cc(C)c([N+](=O)[O-])cc1C	71 °C
CCn1c(=O)c(C=C2C(=O)NN=C2c2c(O)c3ccccc3n(C)c2=O)c(O)c2ccccc21	295 °C

SMILES	melting point
CC12C=CC(=O)C=C1CCC1C2C(O)CC2(C)C1CCC2(O)C(=O)COC(=O)CCCc1ccc(N(CCCl)CCCl)cc1 (configuration not stated)	164 °C
Cc1n[nH]c(C)c1N	192 °C
COc1ccccc1C=C1C(=O)NN=C1c1c(O)c2ccccc2n(C)c1=O	266 °C
CSC(=CC(=C(C#N)C#N)c1ccc(Br)cc1)SC	138 to 142 °C
C=CC1=C(C(=O)O)N2C(=O)C(NC(=O)C(=NOCC(=O)O)c3csc(N)n3)C2SC1 (configuration not stated)	222 °C
O=c1oc2ccccc2c(O)c1C1CCCc2ccccc21 (configuration not stated)	174 °C
FC(F)(F)C(F)(F)N(C(F)(F)C(F)(F)F)C(F)(F)C(F)(F)F	-110 °C
OCC(CO)(CO)COCC(CO)(CO)COCC(CO)(CO)CO	249 °C
CC(C)(C)c1cc(C(C)(C)C)c2oc(C(=O)O)cc(=O)c2c1	229 to 236 °C
CCOC(=O)c1c(-c2ccccc2)[nH]c2cc3[nH]c(-c4ccccc4)c(C(=O)OCC)c3cc12	> 140 °C
O=C(O)CCCCc1ccc(O)cc1	118 °C
CCOC(=O)c1sc2sc(C#N)c(C)c2c1C	155 to 157 °C
COc1c(C)cc(C(=O)O)cc1C	190 to 194 °C
CC(C)S(=O)(=O)c1csc(C(=O)O)c1N	158 °C
COC(=O)C1(S(=O)(=O)c2ccccc2)CC1	74.5 °C
CCCCc1ccc(/N=N/c2ccc(OC)cc2)cc1	31 to 48 °C
COc1ncnc(NS(=O)(=O)c2ccc(N)cc2)c1OC	192 °C
CSCCC(N)CO (configuration not stated)	31 to 36 °C
CCOC(CNC1=CC(=O)C=CC1=O)OCC	70 °C
CC(C(O)c1ccc(O)cc1)N1CCC(Cc2ccccc2)CC1 (configuration not stated)	114 °C
BrCC(CBr)=C(CBr)CBr	135 to 145 °C

SMILES	melting point
CCC(C(=O)Nc1cccc2ccccc12)C1CCC(OC)CC1 (configuration not stated)	163 °C
COc1ccc(-c2nnc3n2NC(c2ccccc2)S3)cc1 (configuration not stated)	134 °C
CCCCCCCCCC(N)=O	108 °C
COC(=O)C1(S(=O)(=O)c2ccc([N+](=O)[O-])cc2)CC1	127 °C
C=C(CC(=O)O)C(=O)O	175 °C
Sc1nc(S)nc(S)n1	300 °C
O=S(=O)(CS(=O)(=O)c1ccccc1)c1ccccc1	117 to 123 °C
CC(C)(C)c1cc(N)c(O)c(C(C)(C)C)c1	161 °C
CC(C)OC(=O)NC(C(=O)NC(C)c1nc2ccc(F)cc2s1)C(C)C (configuration not stated)	153 °C
CCCCCCCCC=CCCCCCCCC(=O)OCCCC	-26.5 °C
N[C@@H](c1ccccc1)c1c(O)ccc2ccccc12	133 to 137 °C
CSC(=NOC(=O)N(C)C=C1C=NC=N1)C(=O)N(C)C	252 °C
c1ccc(CNc2ccccc2)cc1	37.5 °C
O=C(O)C=CC(=O)O	295 to 300 °C
OC1(c2ccc(Br)cc2)CCNCC1	163 to 168 °C
COc1nc(C)nc(N)n1	260 °C
CCCCCCCCCI	-20 °C
C[C@H](C[C@H](I)C(C)(C)C)S(=O)(=O)c1ccccc1	74 °C
c1ccc2c(c1)NC1(CCCC1)O2	221 °C
